d = 2'-deoxy (DNA); r = 2'-OH (RNA)

What all share (assay type): in vivo
In data set [1] the test system is glyphosate-resistant Palmer amaranth containing 16 copies of EPSPS. Description: Glyphosate counter-ions with EPSPS polynucleotides (Example 35, Table 29). Conditions: for Palmer control (%) / Palmer height (cm): 1682 g acid equivalent per hectare of the glyphosate salt, with or without EPSPS polynucleotides (IDT [1]-[4]) in 0.5% Silwet L-77, 2% ammonium sulfate, 16 copies of EPSPS, 21 days after treatment; for herbicidal activity compared to the potassium salt: 1682 g acid equivalent per hectare of glyphosate salt with IDT [1]-[4], 21 days after glyphosate treatment. The text has this:
FIG. 38 depicts the effect of varying glyphosate counter-ions on herbicidal activity (presented as percent of weed control/kill, and as plant height) of topically applied polynucleotides (RNA) on glyphosate-resistant Palmer amaranth plants. A mixture of EPSPS polynucleotides (IDT [1] (SEQ ID NO:83-84), IDT [2] (SEQ ID NO:85-86), IDT [3] (SEQ ID NO:87-88), and IDT [4] (SEQ ID NO:89-90)) in 0.5% Silwet L-77, 2% ammonium sulfate in 10 millimolar sodium phosphate buffer, pH 6.8 with 0.2% Roundup® WeatherMax® carrier (MON56151 tallowamine surfactant blend of tallowamine (16-18C) and cocoamine (12-14C) in the ratio of 55:45) and 1682 g acid equivalent per hectare of one of the glyphosate salts; K+ glyphosate, isopropylammonium+ glyphosate or monoethanolammonium+ glyphosate at 215 liters/acre by Milli spray on 3 replicates of 4-6 inch glyphosate-resistant Palmer amaranth containing 16 copies of EPSPS. Plant height was scored at 21 days after glyphos ate treatment.

The subject of data set [2] is Glyphosate-sensitive Palmer amaranth (Amaranthus palmeri) plants. Description: HPPD, PPO, TIF anti-sense ssDNA with mesotrione, fomesafen, atrazine, plant height (Example 28, Tables 18 and 19). Conditions: for Plant height (mm): four days after herbicide treatment. The procedure:
The herbicidal activity of ssDNA polynucleotides that target the enzymes […] and protoporphyrinogen oxidase (PPO), and a transcription initiation factor (TIF), and their effect on the herbicide activity when used in combination with the herbicides mesotrione, fomesafen, and atrazine in Palmer amaranth was investigated.
Glyphosate-sensitive Palmer amaranth (Amaranthus palmeri) plants were grown in 4-inch square pots with Sun Gro® Redi-Earth seedling mix containing 3.5 kg/cubic meter Osmocote® 14-14-14 fertilizer in a greenhouse with 14 h photoperiod and a daytime temperature of 30 degrees Celsius and night temperature of 20 degrees Celsius. The plants were sub-irrigated as necessary.
Plants at 10 to 15 cm height were pre-treated manually with 40 microliters (4 fully expanded mature leaves were treated with 10 microliters of solution per leaf on each plant) of a buffer-surfactant solution (as a control; 0.5% Silwet L-77 and 2% ammonium sulfate), or a buffer-surfactant-ssDNA polynucleotide mixture of the anti-sense oligonucleotides targetting HPPD, PPO, or TIF. Some plants were left untreated and were used as controls. […] Crop oil concentrate (COC) at 1% was added to all herbicide treatments. A low rate of each herbicide ([…], equivalent to ⅛ of the recommended field rate; […], equivalent to 1/22 of the recommended field rate; […], equivalent to ⅛ of the recommended field rate,) was used to be able to detect any improvement of herbicide activity by the oligonucleotide mixture.
Plant height was determined at four days after herbicide treatment. Data were collected from one experiment with four replications per treatment.

Another data set concerns Palmer amaranth. Kind of data set: Combinations of EPSPS, TIF and ddATPase polynucleotides then glyphosate (Example 26, Tables 12 and 13). The method, then: Solutions of the polynucleotides were prepared and applied to the leaves of Palmer amaranth using the protocols described in Table 12.
Data set [3] relates to Palmer amaranth phytoene desaturase (PDS). Description: Sequence specificity of PDS dsRNA on Palmer amaranth, bleaching (Example 11). The note with it: for bleaching of leaves: 0.6 micromolar polynucleotide, 40 microliters per plant, observed 3 days post treatment; for bleaching of leaves (FIG. 17): separate assay. The procedure:
Palmer amaranth plants having 16 copies of EPSPS and 5-8 inches high were treated with 0.1% Silwet L-77 solution freshly made with ddH2O. Four fully expanded leaves per plant were dipped into the Silwet L-77 solution for a few seconds, and allowed to dry for 30 minutes to 1 hour before application of the polynucleotide composition. Individual polynucleotide solutions were made for each of the 678 by Palmer PDS dsRNA, 198 by Palmer PDS dsRNA, the 685 by Nicotiana benthamiana PDS dsRNA, and the 192 by Nicotiana benthamiana PDS dsRNA (0.6 micromolar polynucleotide in 0.01% Silwet L-77, 5 mM sodium phosphate buffer, pH 6.8). 10 microliters of polynucleotide solution (or buffer as a control) was applied to the top surface of each of the four pre-treated leaves per plant to provide a total of 40 microliters for each plant. Plants were kept in a growth chamber, and leaf bleaching was observed 3 days post treatment.

Setting [4] is: pre-treatment: Untreated, herbicide only (mesotrione 13, fomesafen 23, atrazine 170 grams per hectare of active ingredient, 1% COC).
Setting [5] is: pre-treatment: Buffer (0.5% Silwet L-77 and 2% ammonium sulfate), herbicide 24 h later (mesotrione 13, fomesafen 23 grams per hectare, 1% COC).
The mark [6] stands for this setting: protocol 3, 29 g/acre, copy number 16, 13 DAT.

Take `CC(C)N.O=C(O)CNCP(=O)(O)O` [IPA + glyphosate]: in data set [1], the “Palmer control (%)” value turned out to be 9% and the “Palmer height (cm)” value was determined as 14.5 cm.
The like results for `O=C(O)CNCP(=O)([O-])O.[K+]` [K + glyphosate] were, in that order, 23% and 12.3 cm.
With `NCCO.O=C(O)CNCP(=O)(O)O` [MEA + glyphosate], in data set [1], the “Palmer control (%)” value is 9% and the “Palmer height (cm)” value amounted to 14.5 cm.
For `CCNc1nc(Cl)nc(NC(C)C)n1` [atrazine], in data set [2] (setting [4]), the “Plant height (mm)” value is recorded as 146 mm.
Regarding `CS(=O)(=O)NC(=O)c1cc(Oc2ccc(C(F)(F)F)cc2Cl)ccc1[N+](=O)[O-]` [fomesafen], the “Plant height (mm)” value in data set [2] (setting [5]) is recorded as 139 mm; in data set [2] (setting [4]), 158 mm.
Turning to `CC(C)N.O=C(O)CNCP(=O)(O)O` [isopropylammonium+ glyphosate, reference compound], the “herbicidal activity compared to the potassium salt” value in data set [1] was “better herbicidal activity”.
On to `CS(=O)(=O)c1ccc(C(=O)C2C(=O)CCCC2=O)c([N+](=O)[O-])c1` [mesotrione], for which the “Plant height (mm)” value in data set [2] (setting [5]) is recorded as 179 mm; in data set [2] (setting [4]), 180 mm.
As for `NCCO.O=C(O)CNCP(=O)(O)O` [monoethanolammonium+ glyphosate, reference compound], the “herbicidal activity compared to the potassium salt” value in data set [1] is given as “better herbicidal activity”.
As to “IDT [1]: Palmer/EPSPS dsRNA, SEQ ID NO. 83, 84 (chain 1 CUACCAUCAACAAUGGUGUCCAUAC; chain 2 GUAUGGACACCAUUGUUGAUGGUAGUA; chain 1: sugars from the 5' end r23 d2, backbone not given here; chain 2: RNA, backbone not given here)”, the “Results: % stunted” value in the data set with Palmer amaranth (setting [6]) is 51% stunted.
Regarding “IDT [2]: Palmer/EPSPS dsRNA, SEQ ID NO. 85, 86 (chain 1 AGUUGGUGGGCAAUCAUCAAUUG; chain 2 AACAAUUGAUGAUUGCCCACCAACUCU; chain 1: RNA, 3' dTdT, backbone not given here; chain 2: RNA, backbone not given here)”, the “Results: % control” value in the data set with Palmer amaranth (setting [6]) was found to be 0% control.
“IDT [3]: Palmer/EPSPS dsRNA, SEQ ID NO. 87, 88 (chain 1 GGUCGACAACUUGCUGUAUAGUGA; chain 2 AUCACUAUACAGCAAGUUGUCGACCUC; chain 1: sugars from the 5' end r23 d1, 3' dT, backbone not given here; chain 2: RNA, backbone not given here)”: the “Results: % stunted” value with Palmer amaranth (setting [6]) is 51% stunted.
Still for that read-out and setting: with “IDT [4]: Palmer/EPSPS dsRNA, SEQ ID NO. 89, 90 (chain 1 UGCAAGGUCACCUGGACAGAGAAA; chain 2 UAUUCUCUGUCCAGGUGACCUUGCAAC; listed as RNA, chemistry not fully specified)” the figure was 51% stunted.
Regarding “IDT [5]: Palmer/EPSPS dsRNA (21-mer) with blunt ends, SEQ ID NO. 91, 92 (chain 1 AACAUGAACAAAAUGCCAGAU; chain 2 AUCUGGCAUUUUGUUCAUGUU; RNA, backbone not given here)”, the “Results: % stunted” value turned out to be 71% in the data set on Palmer amaranth (protocol 1, 0.29 g/acre, copy number 33, 54, 55, 18 DAT) and 14.1% with Palmer amaranth (protocol 1, 0.29 g/acre, copy number 34, 36, 54, 22 DAT). Further, the “Results: % killed” value in the data set with Palmer amaranth (protocol 1, 2.9 g/acre each, copy number 34, 36, 54, 22 DAT) is 100% kill; in the data set on Palmer amaranth (protocol 1, 2.9 g/acre, copy number 33, 54, 55, 18 DAT), 100% killed.

B1: HPPD anti-sense ssDNA oligonucleotides: 8 HPPD anti-sense ssDNA oligonucleotides (SEQ ID NOS:141-148) (nucleic acid)
antisense 1: TCCGTAGCTTACATACCGAAG
antisense 2: TCCAAGTGAATAGGAGAAACA
antisense 3: AGCAGCTTCTGCGTCTTCTAC
antisense 4: ACAGCACGCACGCCAAGACCG
antisense 5: CGATGTAAGGAATTTGGTAAA
antisense 6: CGAGGGGATTGCAGCAGAAGA
antisense 7: GTAGGAGAATACGGTGAAGTA
antisense 8: GACCCCAAGAAAATCGTCTGC
modifications: DNA, backbone not given here
As to B1, the “growth reduction relative to the buffer-surfactant control” value in data set [2] (ssDNA pre-treatment without herbicide) stood at 32%. Moreover, the “Palmer amaranth plant height” value in data set [2] (ssDNA pre-treatment without herbicide, 40 microliters per plant in 0.5% Silwet L-77 and 2% ammonium sulfate, buffer-surfactant control 185 mm) was found to be 125 mm.

B2: 198 by Palmer PDS dsRNA: dsRNA to positions 797-994 of SEQ ID NO:37 (nucleic acid, listed as Amaranthus palmeri)
sense: ACCGATTCCTGCAGGAGAAACATGGTTCTAAGATGGCCTTCCTAGACGGAAACCCTCCAGAGAGGCTGTGCATGCCTATTGTTAAACACATCGAGTCACTAGGTGGTGAAGTTAAACTTAACTCTCGTATACAAAAGATTCAGTTGGACCAGAGTGGAAGCGTGAAGAGTTTTTTGCTAAATAACGGGAGGGAAATAC
modifications: complementary strand
B2: in data set [3], the bleaching of leaves result is on record as “showed bleaching of leaves” and the “bleaching of leaves (FIG. 17)” value is reported as “showed bleaching of leaves”.

B3: 678 by Palmer PDS dsRNA: dsRNA to positions 317-994 of SEQ ID NO:37 (nucleic acid, listed as Amaranthus palmeri)
sense: TAGGAGGAAAGGTTGCAGCGTGGAAGGATGAGGATGGTGACTGGTATGAGACTGGGCTACATATATTCTTTGGGGCATATCCAAATGTCCAAAATCTATTTGGAGAACTTGGTATAAATGACCGACTGCAATGGAAGGAGCACTCTATGATTTTTGCAATGCCCAGCAAGCCCGGTGAATTCAGTCGCTTTGATTTTCCCGAAATCCTGCCTGCACCATTAAATGGCATATGGGCAATCCTAAGAAATAATGAAATGCTAACCTGGCCAGAAAAAATCAAGTTTGCCATTGGCTTGTTGCCTGCTATGGCAGGCGGACAGTCATATGTTGAAGCACAAGATGGTTTGAGTGTCCAAGAGTGGATGAGAAAACAAGGAGTACCCGATCGTGTAACTGATGATGTGTTTATTGCCATGTCAAAGGCACTGAACTTCATAAATCCCGATGAACTTTCAATGCAGTGCATCTTGATTGCTCTGAACCGATTCCTGCAGGAGAAACATGGTTCTAAGATGGCCTTCCTAGACGGAAACCCTCCAGAGAGGCTGTGCATGCCTATTGTTAAACACATCGAGTCACTAGGTGGTGAAGTTAAACTTAACTCTCGTATACAAAAGATTCAGTTGGACCAGAGTGGAAGCGTGAAGAGTTTTTTGCTAAATAACGGGAGGGAAATAC
modifications: complementary strand
With B3, in data set [3], the bleaching of leaves entry was “showed bleaching of leaves” and the “bleaching of leaves (FIG. 17)” value is on record as “showed bleaching of leaves”.

Values taken from US20130047297A1, “POLYNUCLEOTIDE MOLECULES FOR GENE REGULATION IN PLANTS” (priority 2010, published 2013).
